Test results as given in paper PMC3079577 (Nature, 2010).

Tests used:
[1] = biological target: LeuT^K (Lys 288 Ala LeuT) (Aquifex aeolicus, UniProt O67854, K288A)
[2] = biological target: T1, wild-type LeuT (Aquifex aeolicus, UniProt O67854); experiment: Isothermal titration calorimetry, Leu binding to wild-type LeuT; conditions: ITC, 25 °C, pH 7.0
[3] = biological target: T2, Tyr 108 Phe–LeuT^K (Aquifex aeolicus, UniProt O67854, K288A/Y108F); experiment: Isothermal titration calorimetry, Leu binding to Tyr 108 Phe mutant; conditions: ITC, 25 °C, pH 7.0
[4] = biological target: LeuT Leu 400 Ala mutant (Aquifex aeolicus, UniProt O67854, L400A); experiment: Scintillation proximity assay, [3H]Leu binding to Leu 400 Ala mutant; conditions: SPA, 400 nM protein, Fig 2b; listed as [^3H]Leu
[5] = biological target: LeuT Leu 400 Cys mutant (Aquifex aeolicus, UniProt O67854, L400C); experiment: Scintillation proximity assay, [3H]Leu binding to Leu 400 Cys mutant; conditions: SPA, 400 nM protein, Fig 2b; listed as [^3H]Leu
[6] = biological target: T1, wild-type LeuT; experiment: Scintillation proximity assay, [3H]Leu binding to wild-type LeuT; conditions: SPA
[7] = biological target: T2, Tyr 108 Phe–LeuT^K; experiment: Equilibrium dialysis, [3H]Leu binding to Tyr 108 Phe mutant; conditions: single-site fit, 23 °C, 6 h, listed as [^3H]Leu
[8] = biological target: T1, wild-type LeuT; experiment: Equilibrium dialysis, [3H]Leu binding to wild-type LeuT; conditions: single-site fit, 23 °C, 6 h, listed as [^3H]Leu
[9] = test system: LeuT; conditions: cited from earlier work
[10] = two-site, ordered-binding model fit, parameters not well fitted

## C[C@H](N)C(=O)O [Ala, alanine]
[1]; read-out: Km (Michaelis constant), pH 5, 200 mM inward Na+ gradient, 27 °C, no valinomycin
  Km: 0.79 ± 0.06 µM
[1]; steady-state data fitted to the Hill equation
  Hill slope nH: 0.96±0.03
[1]; two-site, ordered-binding model fit
  Vmax: 10,965±308 pmol min^−1 mg^−1
[1]; [10]
  apparent dissociation constant KS: 6.8 ± 22 nM
  dissociation coefficient α: 114±360

## CC(C)C[C@H](N)C(=O)O [Leu, L-leucine]
[2]
  ΔH of binding: -3.93 ± 0.02 kcal/mol
  −TΔS of binding: -6.01 ± 0.13 kcal/mol
[2]; single-site model
  Stoichiometry N (substrate-to-LeuT): 0.70±0.01 mol/mol LeuT
[3]
  ΔH of binding: -1.92 ± 0.03 kcal/mol
[3]; single-site model
  Stoichiometry N: 0.79±0.01 mol/mol LeuT
[4]
  Stoichiometry: about 0.8 mol/mol LeuT
[5]
  Stoichiometry: about 0.8 mol/mol LeuT
[6]; 400 nM LeuT (~20 Kd), 25–1,200 nM [3H]Leu, Fig 2b
  Stoichiometry: about 0.8 mol/mol LeuT
[7]
  Stoichiometry: 0.72±0.02 mol/mol LeuT
[8]
  Stoichiometry: 0.73±0.03 mol/mol LeuT

## CN(C)CCCN1c2ccccc2CCc2ccc(Cl)cc21 [clomipramine]
[9]
  Mode of inhibition of LeuT transport: non-competitive inhibitor
[6]; 10 nM LeuT, 1 mM clomipramine
  Effect of clomipramine on binding of Leu to wild-type LeuT: no change
